According to US20210276967A1 (OSPEDALE SAN RAFFAELE S.R.L., priority 2018, published 2021):

Experiments:
[1] = Hepatocytes stability, mouse; assay type: in vitro ADME; details: data not shown
HBV genotype A = assay: Antiviral activity in HepG2 cells transfected with HBV genotype A plasmid, extracellular HBV DNA qPCR; assay type: cell-based; details: Hepatitis B virus, read-out: HBV inhibition EC50 (Mean ± StD)
Procedure: (§1) HepG2 hepatoma cells transfected with HBV plasmids corresponding to the different isolates were used to perform antiviral assay against different HBV genotypes. HBV plasmids were obtained by cloning fragment containing of 1.1-mer HBV genome into the SacI/SaII sites of pcDNA3.1zeo(−) plasmid (V86520, Thermofisher Scientific). The HepG2 cell line was maintained in DMEM, supplemented with 10% of FBS, 1% glutamine and 1% penicillin/streptomycin.
(§2) HBV inhibition activity was determined on different HBV genotypes. For this purpose plasmids pcDNA3.1Zeo(−)-HBV1.1 expressing HBV genotypes A, B, C, D, E were transfected in HepG2 cell line and extracellular HBV quantification was performed by direct qPCR as described above. In detail, cells were seeded at 20,000 cells/well in polylisine coated 96-multiwell plates and 24 h later HBV plasmids were transfected with lipofection using manufacturer's procedure (Lipofectamine 3000 Reagent, Thermofisher Scientific). Five hours after transfection cells were extensively washed with PBS and compounds were added in 8-point dose-response curve in 0.5% DMSO as described above. After 4 days of incubation at 37° C. cells were subjected to cell viability assays and extracellular HBV quantification, in order to evaluate both the cytotoxic potential and the anti-viral activity of compounds, as described above. […]

HBV genotype C = assay: Antiviral activity in HepG2 cells transfected with HBV genotype C plasmid, extracellular HBV DNA qPCR; assay type: cell-based; details: Hepatitis B virus, read-out: HBV inhibition EC50 (Mean ± StD)
Procedure: as §1, §2

HBV genotype D = assay: Antiviral activity in HepG2 cells transfected with HBV genotype D plasmid, extracellular HBV DNA qPCR; assay type: cell-based; details: Hepatitis B virus, read-out: HBV inhibition EC50 (Mean ± StD)
Procedure: as §1, §2

[2] = tested on: HBV (HBeAg, surrogate of cccDNA biogenesis); assay: In vitro HBV infection of HepG2-NTCP cells, extracellular HBeAg ELISA (establishment of HBV cccDNA); assay type: cell-based; details: Hepatitis B virus, 144 h, 6 days, read-out: HBeAg* inhibition EC50 (Mean ± StD, μM) *surrogate of cccDNA biogenesis
Text: HepG2-NTCP hepatoma cell line was used to conduct the infection experiments. HepG2-NTCP was obtained by ectopic expression in HepG2 cells of the human Sodium Taurocholate Cotransporting Polypeptide receptor (hNTCP) using a lentiviral vector expressing human NTCP (Seeger et al., Molecular Therapy-Nucleic Acids, 2014). hNTCP was recently identified as HBV receptor (Yan H. et al., Elife. Nov. 13, 2012; 3). The complete viral life cycle of HBV could be obtained in the HepG2-NTCP cell line. HepG2-NTCP cells were maintained in DMEM, supplemented with 10% of FBS, 1% glutamine and 1% penicillin/streptomycin.
The ability of compounds to inhibit the establishment of HBV cccDNA in infected cells was investigated in an in vitro model of HBV infection. For this purpose HepG2-NTCP cell line, engineered to stably express the HBV receptor human sodium taurocholate cotrasporting polypeptide (hNTCP), was used and HBV particles were produced in HepAD38 following standard published procedure (Hepatitis B methods and protocols, Guo H., Cuconati, A.; 2017; Humana press). In detail HepG2-NTCP were seeded at 20.000 cells/well in collagen coated 96 multiwell plates. […] The ability of compounds to inhibit the establishment of HBV cccDNA was evaluated by quantification of extracellular HBeAg with ELISA (Elisa Kit HBE.CE. Manufacturer: DIA.PRO). […]

HBV genotype B = assay: Antiviral activity in HepG2 cells transfected with HBV genotype B plasmid, extracellular HBV DNA qPCR; assay type: cell-based; details: Hepatitis B virus, HepG2, read-out: HBV inhibition EC50 (Mean ± StD, μM)
Procedure: as §1, §2

HBV genotype E = assay: Antiviral activity in HepG2 cells transfected with HBV genotype E plasmid, extracellular HBV DNA qPCR; assay type: cell-based; details: Hepatitis B virus, read-out: HBV inhibition EC50 (Mean ± StD)
Procedure: as §1, §2

SMILES: Nc1ccc(C(=O)Nc2cc(F)c(F)c(F)c2)cc1S(N)(=O)=O [Example E3, 4-amino-3-sulfamoyl-N-(3,4,5-trifluorophenyl)benzamide]
- stability in mouse hepatocytes [1]: stable

SMILES: Cc1cc(N)c(S(N)(=O)=O)cc1C(=O)Nc1cc(F)c(F)c(F)c1 [Example E17, 4-amino-2-methyl-5-sulfamoyl-N-(3,4,5-trifluorophenyl)benzamide]
- EC50 (HBV genotype A): 58.2 ± 25.4 nM
- EC50 (HBV genotype C): 28.2 ± 10.8 nM
- EC50 (HBV genotype D): 38.7 ± 11.1 nM
- EC50 [2]: 0.147 µM
- EC50 (HBV genotype B): 0.0498 ± 0.0179 µM
- EC50 (HBV genotype E): 51.2 ± 13.6 nM
